Assay results published in patent US7815950B2, “Ketomethionine ketals and derivatives thereof” (Evonik Degussa GmbH, priority 2006, dated 2010).
Where two headings read alike, the source gives them in different places.

Tests used:
[1] = in vivo; cited from earlier work
[2] = feeding experiments with rodents and poultry; compared with MHA; cited from earlier work
[3] = European Commission report, 25 Apr. 2003; cited from earlier work
[4] = ruminants; published in WO 00/28835; cited from earlier work
[5] = HMBi applied to a porous support; compared with WO 00/28835; EP 1358805; cited from earlier work

Compound `CSCCC1(O)OCC(C)(C)COC1=O` (racemic) [Example 4, rac-4,4-dimethyl-7-hydroxy-7-(2-(methylthio)ethyl)-6-oxacaprolactone] has a melting point of 109 °C.
With `CSCCC12OCC(CO1)OC2=O` [Example 5, 4-(2-(methylthio)ethyl)-2,5,8-trioxabicyclo[2.2.2]octan-3-one] the melting point was 39.5 °C.
In the case of `CSCCC(O)C(=O)O` (stereo not drawn) [MHA, hydroxymethylthiobutyric acid], the “supplemented MHA that, after absorption in the small intestine, can pass into metabolism” value [1] is listed as 20-40%.
In the case of `CSCCC1(C(=O)O)OCCO1` [Example 2, 2-(2-(methylthio)ethyl)-1,3-dioxolane-2-carboxylic acid], the melting point was 74 °C.
For `CSCCC(=O)C(=O)[O-].[Na+]` [sodium salt of α-ketomethionine], the biological value [2] is given as “significantly above that of MHA”.
For `CSCCC(O)C(=O)OC(C)C` (stereo not drawn) [HMBi], the “absorbed via the rumen wall” value [3] is listed as “approximately 50%”, the biological value [4] is listed as “at least 50%” and the biological value [5] is listed as “comparable biological value”.
For `CSCCC(N)C(=O)OC(C)(C)C` (racemic) [D,L-tert-butylmethionine, reference compound], the biological value [4] is given as 80%.
